# Patent publication US20150140123A1, “Protein expression analyses for identifying genotoxic compounds” (Merck Patent GmbH, priority 2012, published 2015)
# Where a name gives a salt, the structure may show the parent alone. Read-outs that look alike come from different tables or passages of the source.
# Tested on: HepG2 cells
# Test: High content imaging cytotoxicity parameters: selected cell count per valid field (SCC) and CMFDA cytoplasm average intensity
# Description: HepG2 cells (Order No. HB-8065, Lot. 58483209, ATCC, Manassas, USA) were cultured in DMEM/F12 with L-Glutamine and 15 mM Hepes supplemented with 10% (v/v) FBS, 1% (v/v) penicillin (10 kU/ml)/streptomycin (10 mg/ml) solution, 0.1% (v/v) gentamicin (50 mg/ml), and 1 mM sodium pyruvate at 37° C. and 5% CO2 in culture flasks. Depending on the experiment, an appropriate number of cells were seeded onto plates after detaching of the cells using trypsin and cells were cultured at 37° C. and 5% CO2 for 24 h prior to treatment. All experiments were performed three times with cells of passages 4-20.
# Cells were seeded onto black Poly-D-Lysin coated 96-well-plates (BD Biocoat, Franklin Lakes, USA) (0.02×10^6 cells/well) and left 24 h for adherence and then treated with test compounds at a maximum concentration of 1 mM which is recommended by the ICH S2(R1) guideline (EMA, 2011). For each compound, nine concentrations were tested with 2-fold serial dilutions. DMSO 1% (v/v) served as vehicle control for the experiments. The treatment procedure was different for direct-genotoxic and pro-genotoxic compounds. The treatment for direct genotoxic compounds was ongoing and was repeated daily over 48 h. Pro-genotoxic compounds were incubated for 6 h together with metabolic activation system (to limit the cytotoxic effect of the S9-mixture). After this period, cells were washed with cell media followed by 18-repeated daily over 48 h. The metabolic activation system used consisted of the following components and concentrations: 8 mM MgCl2, 32.8 mM KCl, 12 mM NADPH, 124 mM phosphate buffer and 2500 pmol/ml cytochrome P450 (CYP) content in the pre-mixture corresponding to 2.4 mM MgCl2, 9.8 mM KCl, 3.6 mM NADPH, 37.2 mM phosphate buffer, and 750 pmol/ml CYP as final concentrations after dilution 1:3.33 with cell culture media.
# After treatment, cells were rinsed with PBS (Gibco Invitrogen, Karlsruhe, Germany), and then stained with 10 μM CellTracker Green 5-Chloromethylfluorescein Diacetate (CMFDA) (Invitrogen, Karlsruhe, Germany) in cell culture media for 30 min. CMFDA is per se non-fluorescent and is hydrolyzed by esterase in viable cells to a fluorescent-dye. The reaction with thiol groups leads to a cell-impermeable fluorescent-dye-adduct. The esterase activity can be used as an indicator for viability of cells (Papadopoulos et al., 1994, J Immunol Methods 177, 101-11). Afterwards, cells were washed with PBS and fixed with 3.7% Formaldehyde (Sigma-Aldrich, Taufkirchen, Germany) in PBS for 20 min. After that, cells were washed with PBS and blocked and permeabilized with 2% donkey serum (Millipore, Schwalbach, Germany) and 0.25% Triton X-100 (Sigma-Aldrich, Taufkirchen, Germany) in PBS for 30 min. Primary antibodies were diluted in Blocking/Permeabilization solution to final concentrations of 4 μg/ml anti-p-Chk1 (Ser345) goat polyclonal antibody IgG (santa cruz, Santa Cruz, USA), 4 μg/ml anti-p-ATM (Ser1981) mouse monoclonal antibody IgG1K (Millipore, Schwalbach, Germany) and added to the cells. After incubation for 16-18 h, cells were washed with 0.05% Tween 20 (Calbiochem, Darmstadt, Germany) in PBS, and the secondary antibody/16 μM Hoechst staining solution Blocking/Permeabilization solution was added. Secondary antibodies were diluted 1:400 (Alexa Fluor 555 donkey anti-goat, Alexa Fluor 647 donkey anti-mouse, Invitrogen, Karlsruhe, Germany). After an incubation of 1 h, followed by two additional washing steps with 0.05% Tween 20, cells were washed with PBS and finally PBS was added and cells were measured.
# Image acquisition was performed on the ArrayScan VTI HCS Reader (Cellomics, Pittsburgh, USA) using a 20× objective. To detect enough cells, 50 images starting at the middle of each well were gathered.
# • Channel 1: selected cell count per valid field • Channel 2: CMFDA cytoplasm average intensity • Channel 3: p-Chk1 (Ser345) nucleus average intensity • Channel 4: p-ATM (Ser1981) nucleus average intensity
# [1] = HepG2 cells, 48 h, CMFDA cytoplasm average intensity, with rat liver S9 (+S9)
# [2] = HepG2 cells, 48 h, CMFDA cytoplasm average intensity, without metabolic activation (−S9)
# [3] = HepG2 cells, 48 h, selected cell count per valid field, with rat liver S9 (+S9)
# [4] = HepG2 cells, 48 h, selected cell count per valid field, without metabolic activation (−S9)
compound,measurement,setting,value
COc1cc(/C=C/C(=O)CC(=O)/C=C/c2ccc(O)c(OC)c2)ccc1O [Curcumin],CMFDA +S9 highest conc. <50% cytotox. over control,"human, 48 h",125 µM
same,CMFDA −S9 highest conc. <50% cytotox. over control,"human, 48 h",31.25 µM
same,SCC +S9 highest conc. <50% cytotox. over control,"human, 48 h",125 µM
same,SCC −S9 highest conc. <50% cytotox. over control,"human, 48 h",31.25 µM
Oc1ccc(O)cc1 [Hydroquinone],CMFDA +S9 highest conc. <50% cytotox. over control,"human, 48 h",1000 µM
same,CMFDA −S9 highest conc. <50% cytotox. over control,"human, 48 h",250 µM
same,SCC +S9 highest conc. <50% cytotox. over control,"human, 48 h",1000 µM
same,SCC −S9 highest conc. <50% cytotox. over control,"human, 48 h",250 µM
O=C1NS(=O)(=O)c2ccccc21.[Na] [Sodium saccharin],CMFDA +S9 highest conc. <50% cytotox. over control,human,1000 µM
same,CMFDA −S9 highest conc. <50% cytotox. over control,human,1000 µM
same,SCC +S9 highest conc. <50% cytotox. over control,human,1000 µM
same,SCC −S9 highest conc. <50% cytotox. over control,human,1000 µM
O=P1(N(CCCl)CCCl)NCCCO1 (centres unmarked) [Cyclophosphamide],CMFDA +S9 highest conc. <50% cytotox. over control,human,62.5 µM
same,CMFDA −S9 highest conc. <50% cytotox. over control,human,1000 µM
same,SCC +S9 highest conc. <50% cytotox. over control,human,1000 µM
same,SCC −S9 highest conc. <50% cytotox. over control,human,1000 µM
Nc1ccc(Cl)cc1 [p-chloroaniline],CMFDA +S9 highest conc. <50% cytotox. over control,human,1000 µM
same,CMFDA −S9 highest conc. <50% cytotox. over control,human,1000 µM
same,SCC +S9 highest conc. <50% cytotox. over control,human,1000 µM
same,SCC −S9 highest conc. <50% cytotox. over control,human,1000 µM
C[N+](C)(C)CCCl.[Cl-] [(2-chloroethyl)trimethyl-ammonium chloride],CMFDA +S9 highest conc. <50% cytotox. over control,human,1000 µM
same,CMFDA −S9 highest conc. <50% cytotox. over control,human,1000 µM
same,SCC +S9 highest conc. <50% cytotox. over control,human,1000 µM
same,SCC −S9 highest conc. <50% cytotox. over control,human,1000 µM
"Cn1c(N)nc2ncc(-c3ccccc3)cc21 [PhIP•HCl, 2-Amino-1-methyl-6-phenylimidazo[4,5-f]pyridine]",CMFDA +S9 highest conc. <50% cytotox. over control,[1],1000 µM
same,CMFDA −S9 highest conc. <50% cytotox. over control,[2],500 µM
same,SCC +S9 highest conc. <50% cytotox. over control,[3],1000 µM
same,SCC −S9 highest conc. <50% cytotox. over control,[4],500 µM
Aflatoxin B1,CMFDA +S9 highest conc. <50% cytotox. over control,,500 µM
same,CMFDA −S9 highest conc. <50% cytotox. over control,,500 µM
same,SCC +S9 highest conc. <50% cytotox. over control,,500 µM
same,SCC −S9 highest conc. <50% cytotox. over control,,31.25 µM
O=C1OC(=O)c2ccccc21 [Phthalic anhydride],CMFDA +S9 highest conc. <50% cytotox. over control,[1],1000 µM
same,CMFDA −S9 highest conc. <50% cytotox. over control,[2],1000 µM
same,SCC +S9 highest conc. <50% cytotox. over control,[3],1000 µM
same,SCC −S9 highest conc. <50% cytotox. over control,[4],1000 µM
OCc1ccccc1 [Benzyl alcohol],CMFDA +S9 highest conc. <50% cytotox. over control,"human, 48 h",1000 µM
same,CMFDA −S9 highest conc. <50% cytotox. over control,"human, 48 h",1000 µM
same,SCC +S9 highest conc. <50% cytotox. over control,"human, 48 h",1000 µM
same,SCC −S9 highest conc. <50% cytotox. over control,"human, 48 h",1000 µM
Nc1ccccc1C(=O)O [o-Anthranilic acid],CMFDA +S9 highest conc. <50% cytotox. over control,[1],1000 µM
same,CMFDA −S9 highest conc. <50% cytotox. over control,[2],1000 µM
same,SCC +S9 highest conc. <50% cytotox. over control,[3],1000 µM
same,SCC −S9 highest conc. <50% cytotox. over control,[4],1000 µM
